In DBAASP one finds MIC data, which are given here for 5 molecules.

Test systems include Enterobacter cloacae; Escherichia coli ML-35p; Escherichia coli; Klebsiella aerogenes; Pseudomonas aeruginosa; Staphylococcus aureus; Aeromonas sobria; Edwardsiella tarda; Escherichia coli MC1061.
What all share (test): ≥ marks a high value that may be exact or a test limit, other limits are often not marked, values filed in µg/mL are converted to µM
The subject of assay [1] is Escherichia coli ATCC 25922.
The subject of assay [2] is Pseudomonas aeruginosa ATCC 27853.
Assay [3] relates to Pseudomonas aeruginosa PAO1.
Assay [4] concerns Staphylococcus aureus ATCC 25923.
The test system of assay [5] is Candida albicans CPCC 400416.
In assay [6] the test system is Escherichia coli CPCC 100521.
Assay [7] has as its system Staphylococcus aureus CPCC 100520.
Assay [8] has as its system Acinetobacter baumannii CCARM 12035.
Assay [9] deals with Acinetobacter baumannii CCARM 12036.
Assay [10] relates to Acinetobacter baumannii KCTC 2508.
Assay [11] concerns Bacillus subtilis KCTC 3028.
Assay [12] deals with Escherichia coli CCARM 1229.
The test system of assay [13] is Escherichia coli CCARM 1238.
Assay [14] deals with Escherichia coli KCTC 1682.
Assay [15] deals with Pseudomonas aeruginosa CCARM 2002.
The subject of assay [16] is Pseudomonas aeruginosa CCARM 2095.
In assay [17] the test system is Pseudomonas aeruginosa KCTC 1637.
Assay [18] concerns Salmonella typhimurium CCARM 8003.
Assay [19] relates to Salmonella typhimurium CCARM 8007.
Assay [20] relates to Salmonella typhimurium KCTC 1926.
Assay [21] concerns Staphylococcus aureus CCARM 3089.
Assay [22] relates to Staphylococcus aureus CCARM 3108.
Assay [23] concerns Staphylococcus aureus CCARM 3126.
Assay [24] relates to Staphylococcus aureus KCTC 1621.
In assay [25] the test system is Staphylococcus epidermidis KCTC 1917.
For assay [26], the system named is Staphylococcus aureus ATCC 33592.
Assay [27] deals with Staphylococcus aureus NCTC 8530.
For assay [28], the system named is Aeromonas hydrophila CGMCC 1.0927.
The test system of assay [29] is Bacillus subtilis CGMCC 1.108.
Assay [30] concerns Candida albicans CGMCC 2.2411.
Assay [31] deals with Corynebacterium glutamicum CGMCC 1.1886.
In assay [32] the test system is Micrococcus luteus CGMCC 1.0634.
Assay [33] concerns Micrococcus luteus CGMCC 1.634.
In assay [34] the test system is Pseudomonas fluorescens CGMCC 1.0032.
For assay [35], the system named is Shigella flexneri CGMCC 1.1868.
Assay [36] concerns Staphylococcus aureus CGMCC 1.363.
Assay [37] relates to Staphylococcus epidermidis CGMCC 1.2429.
Assay [38] deals with Vibrio alginolyticus CGMCC 1.1833.
In assay [39] the test system is Vibrio fluvialis CGMCC 1.1609.
Assay [40] relates to Vibrio harveyi CGMCC 1.1593.
The test system of assay [41] is Vibrio parahaemolyticus CGMCC 1.1615.

Values after ≈ are worked out from the molar mass of the structure shown.

As usually defined, the MIC is the lowest concentration found to suppress growth. Higher therefore signals a need for much substance. For the molecule `CC[C@H](C)[C@H](NC(=O)[C@@H](NC(=O)[C@H](CCCN=C(N)N)NC(=O)[C@@H]1CCCN1C(=O)[C@H](CCCCN)NC(=O)[C@H](CCCCN)NC(=O)[C@H](Cc1ccccc1)NC(=O)[C@H](Cc1ccccc1)NC(=O)[C@H](CCCCN)NC(=O)[C@H](CCCCN)NC(=O)[C@H](C)N)C(C)C)C(=O)NCC(=O)N[C@H](C(=O)N[C@@H](CO)C(=O)N[C@H](C(=O)N1CCC[C@H]1C(=O)N[C@@H](Cc1ccccc1)C(=O)O)[C@@H](C)CC)C(C)C` [AKKFFKKPRVIGVSIPF], the MIC was 10.7 µM (≈ 21 µg/mL) against Enterobacter cloacae; 1.53 µM (≈ 3 µg/mL) in assay [1]; 2.55 µM (≈ 5 µg/mL) against Escherichia coli ML-35p; 2.04 µM (≈ 4 µg/mL) against Escherichia coli; 13.8 µM (≈ 27 µg/mL) with Klebsiella aerogenes; 3.57 µM (≈ 7 µg/mL) in assay [2]. Also, the MIC came out at 6.62 µM (≈ 13 µg/mL) in [3], 6.62 µM (≈ 13 µg/mL) in the assay on Pseudomonas aeruginosa, 21.4 µM (≈ 42 µg/mL) in assay [4] and 5.1 µM (≈ 10 µg/mL) in the assay with Staphylococcus aureus.
Take `CC[C@H](C)[C@H](NC(=O)CN)C(=O)NCC(=O)NCC(=O)N[C@@H](C)C(=O)N[C@@H](CC(C)C)C(=O)N[C@@H](CC(C)C)C(=O)N[C@@H](CO)C(=O)N[C@@H](C)C(=O)NCC(=O)N[C@@H](CCCCN)C(=O)N[C@@H](CO)C(=O)N[C@@H](C)C(=O)N[C@@H](CC(C)C)C(=O)N[C@@H](CCCCN)C(=O)NCC(=O)N[C@@H](CC(C)C)C(=O)N[C@@H](C)C(=O)N[C@@H](CCCCN)C(=O)NCC(=O)N[C@@H](CC(C)C)C(=O)N[C@@H](C)C(=O)N[C@@H](CCC(=O)O)C(=O)N[C@@H](Cc1cnc[nH]1)C(=O)N[C@@H](Cc1ccccc1)C(=O)N[C@@H](C)C(=O)N[C@@H](CC(N)=O)C(N)=O` [GIGGALLSAGKSALKGLAKGLAEHFAN]: the MIC in assay [5] was found to be 12.5 µM (≈ 31.9 µg/mL); in assay [6], 6.3 µM (≈ 16.1 µg/mL); in assay [7] it was 6.3 µM (≈ 16.1 µg/mL).
For `CC[C@H](C)[C@H](NC(=O)[C@H](C)NC(=O)[C@H](CCCCN)NC(=O)[C@H](Cc1cnc[nH]1)NC(=O)[C@@H](NC(=O)[C@@H]1CCCN1C(=O)[C@H](CCC(N)=O)NC(=O)[C@H](Cc1ccccc1)NC(=O)[C@@H](NC(=O)[C@H](CCCCN)NC(=O)[C@H](CCCCN)NC(=O)[C@H](CC(C)C)NC(=O)[C@H](C)NC(=O)[C@H](CC(N)=O)NC(=O)[C@H](CC(C)C)NC(=O)CN)C(C)C)[C@@H](C)CC)C(=O)N[C@@H](CCCCN)C(=O)N[C@@H](CCCCN)C(=O)N[C@H](C(=O)N[C@@H](CC(N)=O)C(=O)N[C@@H](CC(N)=O)C(=O)N[C@@H](Cc1cnc[nH]1)C(=O)N[C@H](C(=O)N[C@@H](CCC(N)=O)C(=O)O)C(C)C)[C@@H](C)CC` [GLNALKKVFQPIHKAIKKINNHVQ], the minimum inhibitory concentration (MIC) in [8] is 16 µM (≈ 43.8 µg/mL); in assay [9], 8 µM (≈ 21.9 µg/mL); in [10] it was 8 µM (≈ 21.9 µg/mL); in assay [11], not below 32 µM; in [12] it was 8 µM (≈ 21.9 µg/mL); in assay [13], 8 µM (≈ 21.9 µg/mL). The MIC amounted to 4 µM (≈ 11 µg/mL) in assay [14]; 16 µM (≈ 43.8 µg/mL) in assay [15]; 16 µM (≈ 43.8 µg/mL) in assay [16]; 8 µM (≈ 21.9 µg/mL) in assay [17]; 16 µM (≈ 43.8 µg/mL) in assay [18]; 16 µM (≈ 43.8 µg/mL) in [19]. The MIC is 8 µM (≈ 21.9 µg/mL) in assay [20]; not below 32 µM in assay [21]; not below 32 µM in assay [22]; not below 64 µM in [23]; not below 32 µM in assay [24]; not below 64 µM in assay [25].
Regarding `CC[C@H](C)[C@H](NC(=O)[C@H](CCCCN)NC(=O)[C@H](CCCN=C(N)N)NC(=O)[C@@H](N)CCCCN)C(=O)N[C@@H](Cc1ccccc1)C(=O)N[C@@H](CC(C)C)C(=O)N[C@@H](CCCN=C(N)N)C(=O)N[C@H](C(=O)N[C@@H](CCCCN)C(=O)N[C@H](C(=O)N[C@@H](CC(C)C)C(=O)N[C@H](C(=O)O)C(C)C)[C@@H](C)CC)[C@@H](C)O` [KRKIFLRTKILV], the MIC in assay [26] and in [27] was 3 µM (≈ 4.54 µg/mL) in each case.
Take `CC[C@H](C)[C@H](NC(=O)[C@H](CCCN=C(N)N)NC(=O)CNC(=O)[C@@H](N)C(C)C)C(=O)N[C@@H](Cc1cnc[nH]1)C(=O)N[C@@H](CCCN=C(N)N)C(=O)N[C@@H](Cc1cnc[nH]1)C(=O)N[C@@H](CC(C)C)C(=O)N[C@@H](CCCCN)C(=O)O` [VGRIHRHLK]: the MIC in [28] was not below 48 µM; against Aeromonas sobria, not below 48 µM; in [29] it was not below 48 µM; in assay [30] it was not below 48 µM; in assay [31] it was 17 µM (≈ 18.9 µg/mL); against Edwardsiella tarda, not below 48 µM. Also, the MIC in the assay on Escherichia coli MC1061 was not below 48 µM; in assay [32], not below 48 µM; in [33], 8.49 µM (≈ 9.46 µg/mL); in assay [34], 8.49 µM (≈ 9.46 µg/mL); in assay [35], not below 48 µM; in assay [36] it was 17 µM (≈ 18.9 µg/mL). Also, the MIC in [37], in assay [38], in [39], in [40] and in assay [41] was not below 48 µM throughout.
